Results reported in US20150268223A1, “MICR[…]-CULTURE SYSTEMS AS INFECTIOUS DISEASE ANALYSIS PLATFORMS” (Massachusetts Institute of Technology, priority 2008, published 2015).

Tested on: retroviral pseudoparticles bearing the E1/E2 glycoproteins of the Hepatitis C virus (HCV) genotype 1a strain (H77)
Assay type: cell-based

O=C(O)CN(CCN(CC(=O)O)CC(=O)O)CC(=O)O [EDTA]
access of micropatterned co-cultures to viral pseudoparticles and virus: dramatically improves access
